Measured values from ChEMBL document CHEMBL1122363, “Synthesis and some pharmacological properties of oxytocin and vasopressin analogues with sarcosine or N-methyl-L-alanine in position 7” (1983).
Activity calls are given as the source filed them. The rule behind the calls is not given here. Positions of bridges follow the written chain, without caps; N, C: chain ends. Non-standard residues stand in square brackets, D forms with d. Residues, ends and D or L forms follow the SMILES beside them. NMeA = CN[C@@H](C)C(=O)O; Mpa = O=C(O)CCS; Sar = CNCC(=O)O

Tests used:
Rattus norvegicus [1] = organism: Rattus norvegicus; assay: Tested for vasopressor activity in rat; format: functional; parameters: unit not given here
Rattus norvegicus [2] = organism: Rattus norvegicus; assay: Tested for antidiuretic activity in rat; format: functional, Urine; parameters: unit not given here
Rattus norvegicus [3] = organism: Rattus norvegicus; assay: The compound was tested for milk ejection activity in rat; format: functional; parameters: unit not given here
Rattus norvegicus [4] = organism: Rattus norvegicus; assay: Uterotonic activity in vitro in isolated rat uterus in absence of magnesium; format: functional; parameters: unit not given here
Rattus norvegicus [5] = organism: Rattus norvegicus; assay: Uterotonic activity in vitro in isolated rat uterus in presence of magnesium; format: functional
[6] = Tested for the ratio of antidiuretic potency to uterotonic potency(A/O); format: functional, Urine
[7] = Tested for the ratio of antidiuretic potency to uterotonic potency(A/P); format: functional
Rattus norvegicus [8] = organism: Rattus norvegicus; assay: Tested for vasopressor activity in rat;N-None; format: functional, organism-based
[9] = Tested for the ratio of uterotonic potency to antidiuretic potency(O/A); format: functional, Urine
[10] = Tested for the ratio of uterotonic potency to pressor potency(O/P); format: functional
Rattus norvegicus [11] = organism: Rattus norvegicus; assay: Tested for vasopressor activity in rat; N-None; format: functional, organism-based

SMILES | Activity (Rattus norvegicus [1]) | Activity (Rattus norvegicus [2]) | Activity (Rattus norvegicus [3]) | Activity (Rattus norvegicus [4]) | Activity (Rattus norvegicus [5]) | also measured
CN(CC(=O)N[C@@H](CCCN=C(N)N)C(=O)NCC(N)=O)C(=O)[C@@H]1CSSC[C@H](N)C(=O)N[C@@H](Cc2ccc(O)cc2)C(=O)N[C@@H](Cc2ccccc2)C(=O)N[C@@H](CCC(N)=O)C(=O)N[C@@H](CC(N)=O)C(=O)N1 (H-CYFQNC[Sar]RG-NH2; disulfide 1-6) | 36 | 110 | 9.3 | 188 | 3.6 IU/mg | Ratio [6]: 20; Ratio [7]: 52
CC[C@H](C)[C@@H]1NC(=O)[C@H](Cc2ccc(O)cc2)NC(=O)CCSSC[C@@H](C(=O)N(C)CC(=O)N[C@@H](CC(C)C)C(=O)NCC(N)=O)NC(=O)[C@H](CC(N)=O)NC(=O)[C@H](CCC(N)=O)NC1=O |  |  | 498 | 745 | 1350 IU/mg | 
CC[C@H](C)[C@@H]1NC(=O)[C@@H](Cc2ccc(O)cc2)NC(=O)[C@H](N)CSSC[C@@H](C(=O)N(C)[C@@H](C)C(=O)N[C@@H](CC(C)C)C(=O)NCC(N)=O)NC(=O)[C@H](CC(N)=O)NC(=O)[C@@H](CCC(N)=O)NC1=O |  |  |  |  |  | Activity (Rattus norvegicus [8]): inactive
CC[C@H](C)[C@@H]1NC(=O)[C@H](Cc2ccc(O)cc2)NC(=O)CCSSC[C@@H](C(=O)N2CCC[C@H]2C(=O)N[C@@H](CC(C)C)C(=O)NCC(N)=O)NC(=O)[C@H](CC(N)=O)NC(=O)[C@H](CCC(N)=O)NC1=O [DEMOXYTOCIN] |  |  |  |  |  | Ratio [9]: 130
CC[C@H](C)[C@@H]1NC(=O)[C@H](Cc2ccc(O)cc2)NC(=O)[C@@H](N)CSSC[C@@H](C(=O)NCC(=O)N[C@@H](CC(C)C)C(=O)NCC(N)=O)NC(=O)[C@H](CC(N)=O)NC(=O)[C@H](CCC(N)=O)NC1=O | 0.01 | 0.0056 | 392 | 93 |  | Ratio [9]: 16600
CC[C@H](C)[C@@H]1NC(=O)[C@H](Cc2ccc(O)cc2)NC(=O)[C@@H](N)CSSC[C@@H](C(=O)N[C@@H](C)C(=O)N[C@@H](CC(C)C)C(=O)NCC(N)=O)NC(=O)[C@H](CC(N)=O)NC(=O)[C@H](CCC(N)=O)NC1=O | 0.4 | 0.08 |  | 22 |  | Ratio [9]: 275
CC[C@H](C)[C@@H]1NC(=O)[C@H](Cc2ccc(O)cc2)NC(=O)[C@@H](N)CSSC[C@@H](C(=O)N(C)[C@@H](C)C(=O)N[C@@H](CC(C)C)C(=O)NCC(N)=O)NC(=O)[C@H](CC(N)=O)NC(=O)[C@H](CCC(N)=O)NC1=O |  | 0.12 | 402 | 62 | 184 IU/mg | Ratio [9]: 620
CC[C@H](C)[C@@H]1NC(=O)[C@@H](Cc2ccc(O)cc2)NC(=O)[C@H](N)CSSC[C@@H](C(=O)NCC(=O)N[C@@H](CC(C)C)C(=O)NCC(N)=O)NC(=O)[C@H](CC(N)=O)NC(=O)[C@@H](CCC(N)=O)NC1=O |  |  |  |  |  | Ratio [10]: 9300
NC(=O)CC[C@@H]1NC(=O)[C@H](Cc2ccccc2)NC(=O)[C@H](Cc2ccc(O)cc2)NC(=O)[C@@H](N)CSSC[C@@H](C(=O)NCC(=O)N[C@@H](CCCN=C(N)N)C(=O)NCC(N)=O)NC(=O)[C@H](CC(N)=O)NC1=O (H-CYFQNCGRG-NH2; disulfide 1-6) |  |  | 0.1 |  | 0.01 IU/mg | 
C[C@@H](C(=O)N[C@@H](CCCN=C(N)N)C(=O)NCC(N)=O)N(C)C(=O)[C@@H]1CSSCCC(=O)N[C@@H](Cc2ccc(O)cc2)C(=O)N[C@@H](Cc2ccccc2)C(=O)N[C@@H](CCC(N)=O)C(=O)N[C@@H](CC(N)=O)C(=O)N1 ([Mpa]YFQNC[NMeA]RG-NH2; disulfide 1-6) | 8 | 35 | 1.7 | 113 | 1.3 IU/mg | Ratio [6]: 78; Ratio [7]: 102
CC[C@H](C)[C@@H]1NC(=O)[C@H](Cc2ccc(O)cc2)NC(=O)CCSSC[C@H](C(=O)N2CCC[C@H]2C(=O)N[C@@H](CC(C)C)C(=O)NCC(N)=O)NC(=O)[C@H](CC(N)=O)NC(=O)[C@H](CCC(N)=O)NC1=O |  |  |  |  |  | Ratio [10]: 120
CC[C@H](C)[C@@H]1NC(=O)[C@H](Cc2ccc(O)cc2)NC(=O)[C@@H](N)CSSC[C@@H](C(=O)N(C)CC(=O)N[C@@H](CC(C)C)C(=O)NCC(N)=O)NC(=O)[C@H](CC(N)=O)NC(=O)[C@H](CCC(N)=O)NC1=O (H-CYIQNC[Sar]LG-NH2; disulfide 1-6) |  | 0.18 | 564 | 459 | 609 IU/mg | Ratio [9]: 2550
N=C(N)NCCC[C@H](NC(=O)[C@@H]1CCCN1C(=O)[C@@H]1CSSCCC(=O)N[C@@H](Cc2ccc(O)cc2)C(=O)N[C@@H](Cc2ccccc2)C(=O)N[C@@H](CCC(N)=O)C(=O)N[C@@H](CC(N)=O)C(=O)N1)C(=O)NCC(N)=O [DESMOPRESSIN] |  |  |  |  | 346 IU/mg | Ratio [6]: 60; Ratio [7]: 5
CC[C@H](C)[C@@H]1NC(=O)[C@@H](Cc2ccc(O)cc2)NC(=O)CCSSC[C@@H](C(=O)N(C)CC(=O)N[C@@H](CC(C)C)C(=O)NCC(N)=O)NC(=O)[C@H](CC(N)=O)NC(=O)[C@@H](CCC(N)=O)NC1=O |  |  |  |  |  | Activity (Rattus norvegicus [11]): inactive
CC[C@H](C)[C@@H]1NC(=O)[C@H](Cc2ccc(O)cc2)NC(=O)CCSSC[C@@H](C(=O)N(C)[C@@H](C)C(=O)N[C@@H](CC(C)C)C(=O)NCC(N)=O)NC(=O)[C@H](CC(N)=O)NC(=O)[C@H](CCC(N)=O)NC1=O ([Mpa]YIQNC[NMeA]LG-NH2; disulfide 1-6) |  |  | 157 | 98 | 274 IU/mg | 
C[C@@H](C(=O)N[C@@H](CCCN=C(N)N)C(=O)NCC(N)=O)N(C)C(=O)[C@@H]1CSSC[C@H](N)C(=O)N[C@@H](Cc2ccc(O)cc2)C(=O)N[C@@H](Cc2ccccc2)C(=O)N[C@@H](CCC(N)=O)C(=O)N[C@@H](CC(N)=O)C(=O)N1 (H-CYFQNC[NMeA]RG-NH2; disulfide 1-6) | 4.1 | 35 | 2.8 | 343 | 10.6 IU/mg | Ratio [6]: 122; Ratio [7]: 32
CC[C@H](C)[C@@H]1NC(=O)[C@H](Cc2ccc(O)cc2)NC(=O)[C@@H](N)CSSC[C@@H](C(=O)N2CCC[C@H]2C(=O)N[C@@H](CC(C)C)C(=O)NCC(N)=O)NC(=O)[C@H](CC(N)=O)NC(=O)[C@H](CCC(N)=O)NC1=O [OXYTOCIN] |  |  |  |  | 486 IU/mg | Ratio [10]: 120
CN(CC(=O)N[C@@H](CCCN=C(N)N)C(=O)NCC(N)=O)C(=O)[C@@H]1CSSCCC(=O)N[C@@H](Cc2ccc(O)cc2)C(=O)N[C@@H](Cc2ccccc2)C(=O)N[C@@H](CCC(N)=O)C(=O)N[C@@H](CC(N)=O)C(=O)N1 ([Mpa]YFQNC[Sar]RG-NH2; disulfide 1-6) | 49 | 193 | 38.2 | 580 | 0.84 IU/mg | Ratio [6]: 15; Ratio [7]: 690
CC[C@H](C)[C@@H]1NC(=O)[C@@H](Cc2ccc(O)cc2)NC(=O)[C@H](N)CSSC[C@@H](C(=O)N[C@@H](C)C(=O)N[C@@H](CC(C)C)C(=O)NCC(N)=O)NC(=O)[C@H](CC(N)=O)NC(=O)[C@@H](CCC(N)=O)NC1=O |  |  |  |  |  | Ratio [10]: 55
